# Measured values taken from patent US20230097253A1, “NOVEL QUINAZOLINE COMPOUND AS THERAPEUTIC AGENT FOR METABOLIC DISORDERS” (BIOWAY., INC, priority 2020, published 2023).
# Assays:
# SIRT1 = molecular target: T1, SIRT1 (Homo sapiens, UniProt Q96EB6); assay: Measurement of SIRT1 activity (Sirt1 direct fluorescent screening assay kit); assay type: biochemical; conditions: compared with the control (RSV, resveratrol); FIG. 14
# T1 construct: purchased Cayman
# T1 sequence (Q96EB6 1-747): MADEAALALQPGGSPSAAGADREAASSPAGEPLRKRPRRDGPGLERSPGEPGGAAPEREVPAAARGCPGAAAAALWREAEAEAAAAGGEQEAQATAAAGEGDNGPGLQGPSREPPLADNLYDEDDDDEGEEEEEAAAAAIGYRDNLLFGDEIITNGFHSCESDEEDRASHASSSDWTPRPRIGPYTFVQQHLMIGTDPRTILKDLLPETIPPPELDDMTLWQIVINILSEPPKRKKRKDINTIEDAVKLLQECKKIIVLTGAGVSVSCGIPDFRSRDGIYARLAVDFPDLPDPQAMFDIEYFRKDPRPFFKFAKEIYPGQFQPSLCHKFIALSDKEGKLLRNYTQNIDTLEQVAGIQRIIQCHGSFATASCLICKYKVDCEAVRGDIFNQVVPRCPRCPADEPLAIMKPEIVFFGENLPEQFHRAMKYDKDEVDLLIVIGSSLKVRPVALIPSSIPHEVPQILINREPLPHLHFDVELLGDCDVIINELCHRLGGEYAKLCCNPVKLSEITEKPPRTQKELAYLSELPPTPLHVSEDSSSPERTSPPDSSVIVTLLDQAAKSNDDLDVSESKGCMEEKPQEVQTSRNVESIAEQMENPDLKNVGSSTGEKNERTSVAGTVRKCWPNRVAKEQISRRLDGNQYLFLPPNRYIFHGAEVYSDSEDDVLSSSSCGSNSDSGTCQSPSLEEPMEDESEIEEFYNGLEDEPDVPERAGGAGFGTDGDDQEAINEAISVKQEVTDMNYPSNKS
# Experimental: All of the materials were provided from Sirt1 direct fluorescent screening assay kit (Cayman, Ann Arbor, Mich., USA).
# SIRT1, p53 conjugated aminomethylcoumarin (AMC) protein, and 3 mM NAD+ were added to diluted assay buffer (50 mM Tris-HCl, pH 8.0, 137 mM NaCl, 2.7 mM KCl, and 1 mM MgCl2).
# Three 100% initial activity wells among the 96-wells were added with 25 μL of assay buffer, 5 μL of diluted SIRT1, and 5 μL of a solvent.
# Three background wells among the 96-wells were added with 30 μL of assay buffer and […].
# Three sample wells among the 96-wells were added with 25 μL of assay buffer, 5 μL of diluted SIRT1, and 5 μL of a diluted test compound. The final DMSO concentration was lower than 2%. […]
# After removing the plate cover, the plate was read with Cytation 5 using an excitation wavelength at 360 nm and an emission wavelength at 450 nm.
# Then, the average level of fluorescence for each sample was measured.
# The fluorescence level of the background well was subtracted from the fluorescence level of the 100% starting active well and that of the sample well.
# To determine the percentage of each sample, each sample value was subtracted from the 100% initial activity value, divided by the 100% initial activity value, and multiplied by 100, and the resulting value was added to 100 and expressed as a percentage. […]
# [1] = system: steatosis-induced Huh7 cells; assay: Fat globule reducing effect in steatosis-induced hepatocytes by Oil-Red-O staining; assay type: cell-based; conditions: 250 μM PA, 0.5, 2.5 and 10 μM, concentration dependent, FIG. 7
# Experimental: According to an embodiment of the present invention, in order to confirm the effect of inhibiting the accumulation of triglycerides in steatosis-induced liver cells, the Huh7 cells were cultured in an incubator set at 37° C. with 95% humidity and 5% CO2.
# Additionally, Huh7 cells were proliferated to a confluency of 80-90% on a plate using a growth medium (Dulbecco's modified Eagle's medium (DMEM) supplemented with 10% fetal bovine serum (FBS), 100 U/ml of penicillin, and 100 μg/ml of streptomycin), and then used for the experiment.
# According to an embodiment of the present invention, in order to confirm the ability of BW-3290 to inhibit fat globule accumulation in steatosis-induced liver cells, the liver cells were treated with palmitic acid (PA) bound to 2% BSA at a concentration of 250 μM except for the control group to induce steatosis, and then fat globules were stained through Oil-Red-O staining.
# First, liver cells were cultured to grow 80-90% confluency in a 12 well plate, and the test material were diluted in the culture medium that induced steatosis and the liver cells, except for the control group, were treated with 0.5 μM, 2.5 μM, and 10 μM of the test material.
# Additionally, after removing the cell supernatant from the wells for Oil-Red-O staining, the washing process was performed twice with PBS. […]
# DIAMOND™ mouse model [2] = assay: In-vivo activity, histopathological diagnosis (H&E and Oil-Red-O staining of liver tissue); conditions: DIAMOND mice, 16 mg/kg oral once daily for 8 weeks, FIG. 18
# Experimental: (§1) The DIAMOND™ mouse model, an animal model prepared using a Western diet and sugar water, was used. The DIAMOND™ mice were induced with WDSW for 14 weeks, and 12 mice were used for the control group and 12 mice for the BW-3290 treatment group, and BW-3290 was orally administered at 16 mg/kg once daily for 8 weeks. An autopsy was performed at week 22, and blood collection and tissue storage were performed for the individuals in each group.
# Hematoxylin & Eosin (H&E) staining and Oil-Red-O (ORO) staining were performed using liver tissue obtained after autopsy
# DIAMOND™ mouse model [3] = assay: Insulin resistance test; assay type: in vivo; conditions: insulin 0.75 UU/kg intraperitoneally after 6 hours fasting; at 0 and 90 minutes, statistical significance vs control group (VC); FIG. 20
# Experimental: as §1
# The insulin resistance test was performed one week before autopsy, and the subject was fasted for 6 hours.
# Insulin was injected intraperitoneally at a concentration of 0.75 UU/kg, and the blood was collected 15 minutes, 30 minutes, 45 minutes, and 90 minutes after the injection, and the blood glucose levels were measured using the OneTouch Plus Ultra Glucometer and glucose scores were evaluated therefrom.
structure (smiles),measurement,setting,value
"CC(C)C(Nc1ncnc2nc[nH]c12)c1nc2cccc(Cl)c2c(=O)n1-c1ccccc1 (centres unmarked) [BW-3290, 2-(1-((7H-purin-6-yl)amino)-2-methylpropyl)-5-chloro-3-phenylquinazolin-4(3H)-one]",SIRT1 activity level,SIRT1,further increases
same,fat globule staining (Oil-Red-O) compared to PA,[1],lower level of fat globule staining compared to PA
same,"fat cells stained in red in liver tissue, ORO staining",DIAMOND™ mouse model [2]; compared to the control group (VC),reduced
same,"fat globules in liver tissue, H&E staining",DIAMOND™ mouse model [2]; compared to the control group,reduced
same,glucose score,DIAMOND™ mouse model [3],decreased
